Several values for one entry are separate records, joined by “and”; a condition that tells them apart may be missing. Equal values may be shown once. Read-outs that look alike come from different tables or passages of the source.
Experiments:
[1] = 3 mg intravenous (IV); cited from earlier work
[2] = Pharmacokinetics of Bazedoxifene in CD-1 mice (plasma, LC-MS-MS); type: in vivo; design: Plasma Bazedoxifene Concentrations: unit not given here
[3] = tested on: primary human T cells; assay: IL12 (p70) in lentivirus transduced primary human T cells, Bazedoxifene dose response (MSD assay); type: cell-based
Procedure: Primary human T cells were expanded with CD3/CD28 Dynabeads, transduced with lentivirus constructs and expanded for 10 days. Beads were removed and cells were frozen. T cells were later thawed and 100,000 cells were treated overnight with different doses of Bazedoxifene (BZD). Transduction efficiency was assessed by flow cytometry using CD19-Fc staining. The response of IL12 in CD19 CAR-IL12 tandem constructs to increasing concentrations of ligand was measured using OT-001736 construct with increasing doses of BZD starting at 0.01 nM to up to 3 μM for 23 hours. IL12 levels were measured using MSD assay. Controls tested in the experiment included OT-001357, which constitutively expresses IL12 and OT-001407, which is not expected to show any IL12 expression.
Additional ER mutants were tested in primary human T cells as described above, except T cells were treated on day 9 of expansion, and not frozen and thawed prior to the experiment (Table 15).

- Plasma Bazedoxifene Concentrations ([2]; 10 mg/kg single dose, 0.25 hours post dose, free and bound combined, individual animals): 0.062 and 0.127 and 0.287
- Plasma Bazedoxifene Concentrations ([2]; 10 mg/kg single dose, 0.5 hours post dose, free and bound combined, individual animals): 0.050 and 0.091
- Plasma Bazedoxifene Concentrations ([2]; 10 mg/kg single dose, 1 hours post dose, free and bound combined, individual animals): 0.089 and 0.105
- Plasma Bazedoxifene Concentrations ([2]; 10 mg/kg single dose, 2 hours post dose, free and bound combined, individual animals): 0.096 and 0.107
- Plasma Bazedoxifene Concentrations ([2]; 10 mg/kg single dose, 4 hours post dose, free and bound combined, individual animals): 0.053 and 0.055
- Plasma Bazedoxifene Concentrations ([2]; 10 mg/kg single dose, 7 hours post dose, free and bound combined, individual animals): 0.036 and 0.035
- Plasma Bazedoxifene Concentrations ([2]; 10 mg/kg single dose, 10 hours post dose, free and bound combined, individual animals): 0.033 and 0.028 and 0.016
- Plasma Bazedoxifene Concentrations ([2]; 10 mg/kg single dose, 24 hours post dose, free and bound combined, individual animals): 0.005 and 0.003 and 0.004
- Plasma Bazedoxifene Concentrations ([2]; 100 mg/kg single dose, 0.25 hours post dose, free and bound combined, individual animals): 1.268 and 0.949 and 2.590
- Plasma Bazedoxifene Concentrations ([2]; 100 mg/kg single dose, 0.5 hours post dose, free and bound combined, individual animals): 2.113 and 2.208 and 4.544
- Plasma Bazedoxifene Concentrations ([2]; 100 mg/kg single dose, 1 hours post dose, free and bound combined, individual animals): 2.590 and 5.138
- Plasma Bazedoxifene Concentrations ([2]; 100 mg/kg single dose, 2 hours post dose, free and bound combined, individual animals): 2.272 and 4.161
- Plasma Bazedoxifene Concentrations ([2]; 100 mg/kg single dose, 4 hours post dose, free and bound combined, individual animals): 1.208 and 1.902
- Plasma Bazedoxifene Concentrations ([2]; 100 mg/kg single dose, 7 hours post dose, free and bound combined, individual animals): 0.894 and 0.463 and 0.970
- Plasma Bazedoxifene Concentrations ([2]; 100 mg/kg single dose, 10 hours post dose, free and bound combined, individual animals): 0.754 and 0.497 and 0.713
- Plasma Bazedoxifene Concentrations ([2]; 100 mg/kg single dose, 24 hours post dose, free and bound combined, individual animals): 0.023 and 0.179 and 0.025
- Plasma Bazedoxifene Concentrations ([2]; 200 mg/kg single dose, 0.25 hours post dose, free and bound combined, individual animals): 1.495 and 1.013
- Plasma Bazedoxifene Concentrations ([2]; 200 mg/kg single dose, 0.5 hours post dose, free and bound combined, individual animals): 2.314 and 1.707
- Plasma Bazedoxifene Concentrations ([2]; 200 mg/kg single dose, 1 hours post dose, free and bound combined, individual animals): 3.397 and 4.013
- Plasma Bazedoxifene Concentrations ([2]; 200 mg/kg single dose, 2 hours post dose, free and bound combined, individual animals): 2.590 and 3.567
- Plasma Bazedoxifene Concentrations ([2]; 200 mg/kg single dose, 4 hours post dose, free and bound combined, individual animals): 1.327 and 2.357
- Plasma Bazedoxifene Concentrations ([2]; 200 mg/kg single dose, 7 hours post dose, free and bound combined, individual animals): 0.866 and 0.726 and 1.189
- Plasma Bazedoxifene Concentrations ([2]; 200 mg/kg single dose, 10 hours post dose, free and bound combined, individual animals): 0.699 and 0.732 and 0.715
- Plasma Bazedoxifene Concentrations ([2]; 200 mg/kg single dose, 24 hours post dose, free and bound combined, individual animals): 0.297 and 0.314 and 0.180
- concentration at 0.5 h ([2]; CD-1, mouse, plasma, oral, 10 mg/kg, 10 mg/kg single dose, 0.5 hours post dose, free and bound combined, individual animals, read-out: Plasma Bazedoxifene Concentrations): 71 nM
- concentration at 1 h ([2]; CD-1, mouse, plasma, oral, 10 mg/kg, 10 mg/kg single dose, 1 hours post dose, free and bound combined, individual animals, read-out: Plasma Bazedoxifene Concentrations): 97 nM
- concentration at 2 h ([2]; CD-1, mouse, plasma, oral, 10 mg/kg, 10 mg/kg single dose, 2 hours post dose, free and bound combined, individual animals, read-out: Plasma Bazedoxifene Concentrations): 77 nM
- concentration at 4 h ([2]; CD-1, mouse, plasma, oral, 10 mg/kg, 10 mg/kg single dose, 4 hours post dose, free and bound combined, individual animals, read-out: Plasma Bazedoxifene Concentrations): 49 nM
- concentration at 7 h ([2]; CD-1, mouse, plasma, oral, 10 mg/kg, 10 mg/kg single dose, 7 hours post dose, free and bound combined, individual animals, read-out: Plasma Bazedoxifene Concentrations): 34 nM
- concentration at 1 h ([2]; CD-1, mouse, plasma, oral, 100 mg/kg, 100 mg/kg single dose, 1 hours post dose, free and bound combined, individual animals, read-out: Plasma Bazedoxifene Concentrations): 3590 nM
- concentration at 2 h ([2]; CD-1, mouse, plasma, oral, 100 mg/kg, 100 mg/kg single dose, 2 hours post dose, free and bound combined, individual animals, read-out: Plasma Bazedoxifene Concentrations): 2820 nM
- concentration at 4 h ([2]; CD-1, mouse, plasma, oral, 100 mg/kg, 100 mg/kg single dose, 4 hours post dose, free and bound combined, individual animals, read-out: Plasma Bazedoxifene Concentrations): 1380 nM
- concentration at 0.25 h ([2]; CD-1, mouse, plasma, oral, 200 mg/kg, 200 mg/kg single dose, 0.25 hours post dose, free and bound combined, individual animals, read-out: Plasma Bazedoxifene Concentrations): 1060 nM
- concentration at 0.5 h ([2]; CD-1, mouse, plasma, oral, 200 mg/kg, 200 mg/kg single dose, 0.5 hours post dose, free and bound combined, individual animals, read-out: Plasma Bazedoxifene Concentrations): 1510 nM
- concentration at 1 h ([2]; CD-1, mouse, plasma, oral, 200 mg/kg, 200 mg/kg single dose, 1 hours post dose, free and bound combined, individual animals, read-out: Plasma Bazedoxifene Concentrations): 2400 nM
- concentration at 2 h ([2]; CD-1, mouse, plasma, oral, 200 mg/kg, 200 mg/kg single dose, 2 hours post dose, free and bound combined, individual animals, read-out: Plasma Bazedoxifene Concentrations): 3270 nM
- concentration at 4 h ([2]; CD-1, mouse, plasma, oral, 200 mg/kg, 200 mg/kg single dose, 4 hours post dose, free and bound combined, individual animals, read-out: Plasma Bazedoxifene Concentrations): 1580 nM
- Cmax ([2]; CD-1, mouse, plasma, dose of 200 mg/kg per os (PO), read-out: Murine Cmax): ~3000 nM
- EC50 ([3]; T-cell, BZD dose response in primary human T cells expressing OT-001736, read-out: EC50 of IL12 induction): 200 nM
SMILES: Cc1c(-c2ccc(O)cc2)n(Cc2ccc(OCCN3CCCCCC3)cc2)c2ccc(O)cc12 [Bazedoxifene]
- Cmax [1]: ~100 nM
- lowest BZD concentration that induced IL12 expression ([3]; primary human T cells expressing OT-001736): 0.05 µM

From US20210386788A1, “ER TUNABLE PROTEIN REGULATION” (Obsidian Therapeutics, Inc., priority 2018, published 2021)
